Measured values reported in patent publication US6114393A, “Use of inhibitors of the sodium-hydrogen exchanger for the production of a pharmaceutical for the treatment of disorders which are caused by protozoa” (Hoechst Marion Roussel Deutschland GmbH, priority 1997, dated 2000).
Where a name gives a salt, the structure may show the parent alone. Read-outs that look alike come from different tables or passages of the source.

How the values were obtained:
[1] = tested on: Plasmodium falciparum HB3 (chloroquine-sensitive) strain; test: growth inhibition of Plasmodium falciparum, [3H]-hypoxanthine incorporation, chloroquine-sensitive (HB3) strain; format: cell-based; details: 48 h erythrocyte cycle, ring stage, 1% parasitemia
Experimental: (§1) Erythrocytic stages of the human malaria parasite Plasmodium falciparum were cultured in RPMI 1640 medium, with L-glutamine, 25 mM HEPES, 4 μg/ml of gentamycin, 10% human serum and 5% human erythrocytes, according to Trager and Jensen (1976). The cultures were kept in Petri dishes (10 ml per dish with 10 cm diameter) and incubated at 37° C. in an atmosphere of 92% nitrogen, 3% carbon dioxide and 5% oxygen. The medium of the cultures was changed daily. At a parasitemia of at most 10%, the cultures were diluted. In order to synchronize the cultures, the infected erythrocytes were washed in 5% strength sorbitol solution according to Lambros and Vanderberg (1979). Only the ring stages survive this treatment.
(§2) The half-maximal inhibitory concentration of various NHE inhibitors for the growth of Plasmodium flaciparum was measured in 96-well microtiter plates by incorporation of radioactive hypoxanthine according to Desjardins et al. (1979). In this case, the parasites were cultured for a complete erythrocyte cycle lasting 48 hours in the presence of the corresponding NHE inhibitors.
(§3) The NHE inhibitors were dissolved in DMSO and prediluted in physiological saline solution (150 mM NaCl). The dilution series of the NHE inhibitors in 10-fold concentrated 20 μl aliquots was initially introduced onto the microtiter plates, 180 μl of parasite suspension in culture medium were then added to each one. The parasites were in the ring stage with a parasitemia of 1%. The microtiter plates were then incubated for 24 hours. In order to change the culture medium, 150 μl each of supernatant from each well were removed and replaced by 135 μl of new medium, additionally supplemented with 2 μCi/ml of [3H]-hypoxanthine. […] After incubation for a further 24 hours, the cultures were harvested by filtration on glass fiber filters and the incorporated radioactivity was measured. […]
(§4) The IC50 values of the various NHE inhibitors were measured on a chloroquine-sensitive (HB3) and a chloroquine-resistant (Dd2) strain.

[2] = tested on: Plasmodium falciparum Dd2 (chloroquine-resistant) strain; test: growth inhibition of Plasmodium falciparum, [3H]-hypoxanthine incorporation, chloroquine-resistant (Dd2) strain; format: cell-based; details: read-out: Dd2 IC50
Experimental: as §1, §2, §3, §4

[3] = Dd2, chloroquine-resistant, 48 h erythrocyte cycle, ring stage, 1% parasitemia

Row | IC50 [1] [µM] | IC50 [2, 3] [µM] | Structure (SMILES) | IC50 ([2]; DD2, Erythrocyte, 48 h) [µM]
1 | 9.97 | 1.3 ± 0.1 | CN(C)c1cc(C(=O)N=C(N)N)cc(C(F)(F)F)c1 [3-trifluoromethyl-5-N,N-dimethylaminobenzoylguanidine dihydrochloride] | 
2 | 12 ± 1.7 | 6.5 ± 1.5 | NC(N)=NC(=O)c1ccc(Oc2cccnc2)c(C(F)(F)F)c1 [3-trifluoromethyl-4-(3-pyridyloxy)benzoylguanidine dihydrochloride] | 

Row | Structure (SMILES) | IC50 [1] [µM] | IC50 [2, 3] [µM] | IC50 ([2]; DD2, Erythrocyte, 48 h) [µM]
3 | CS(=O)(=O)c1cc(C(=O)N=C(N)N)ccc1Oc1ccc(CCN)cc1 [4-[4-(2-aminoethyl)phenoxy]-3-methylsulfonylbenzoylguanidine dihydrochloride] | 2.9 ± 0.79 |  | 3.5 ± 0.04
